# Values of other authors, collected in patent publication US20250049666A1, “LIQUID COMPOSITION HAVING ENHANCED ANTIMICROBIAL ACTIVITY” (Conopco Inc., d/b/a UNILEVER, priority 2021, published 2025).
pKa,log P (octanol/water),Molecule
4.72,,CCCCCCCC(=O)O [Caprylic acid]
"acid (pKa = 3.83, log",P = 4.83),Capryloyl salicylic acid
